A short description of data set [1]: SPE binding and recovery of flavonoid standards from freshly prepared Oasis HLB cartridges. Type of data set: physicochemical. To be noted: 10, 15, and 20 ppm standard solutions. The procedure:
In addition, on-column standards were prepared from the fresh standards. Unidirectional flow Oasis® HLB, 30 mg sorbent 1 mL cartridges were used as the solid phase extraction column. The appropriate amounts of standard compounds corresponding to 10-30 ppm were adsorbed to SPE sorbent Oasis® HLB cartridges.
The SPE columns were activated with 1 mL methanol and equilibrated with 1 mL water. The cartridges loaded with standard compound solutions dried and were stored in vacuum sealed packing.
The columns were stored for several days. The columns were washed with 1:1 methanol/water. Elution was performed twice with 500 μL 10% formic acid in methanol. HPLC-UV and ESI-MS were used to quantify the target compounds.

Data set [2] is classed as physicochemical. Here is the method: All three solutions were combined to a final volume of 10.0 mL using pure methanol. From this stock solution, working standards at net final concentration of 10-30 ppm (each) were prepared by appropriate dilution of the stock solution into 1:1 methanol/water, v/v. All working solutions were stored at −20° C. as well as stored at room temperature (stability was monitored after 4 hours, 1 day, 3 days, 7 days, 10 days and 28 days' storage at room temperature) to monitor the extent of degradation.
Degradation Kinetics (0-28 Days) for wet storage at room temperature.
The stability of flavonoids was compared at wet storage (solution form at room temperature and at −20° C.) and dry storage (room temperature bound to sorbent and dry form in an open Eppendorf vial).

The nature of data set [3]: Bound and recovery of PAH standards on PS-DVB on-column standards after 15 days of storage. Type of data set: physicochemical. To be noted: standards 0.1-9 ppm; for Average % Bound: PS-DVB pipette tip columns; for Average % Recovered: after 15 days of storage of on-column standards. The procedure:
Primary stock solutions of PAHs, namely B(a)A, Ch, B(b)F and B(a)P, were prepared by dissolving 1-2 mg of each compound in 10.0 mL methanol separately. From these stock solutions, secondary working standard stock solutions were mixed together to constitute the working standards containing all the standards mixed together. The secondary standard mixtures were prepared to have final concentrations of 0.1-10 ppm. All primary and secondary working solutions were stored at −20° C.
PS-DVB 160 μL resin bed volume pipette tip columns (50 mg resin, particle size 70-100 μm particle size, 950 m^2/g surface area) from PhyNexus® (San Jose, CA) were activated with 500 μL of 1:1 methanol/water through five times recycling of the activation solution. The loading was achieved through ten times recycling of the 500 μL sample. Washing was carried out once, with 1:1 methanol/water (ten times recycling of 500 μL wash solution). After washing, the sorbent was dried for 1 minute through flushing ambient air in and out of the tip and then air dried and stored for 15 days.
PS-DVB sorbent retains PAHs due to strong π-π interactions between sorbent and PAHs. The PS/DVB on-column standards were prepared by loading 0.1, 0.3, 0.5, 0.7, 0.9, 1, 3, 5, 7, and 9 ppm standard mixtures. These corresponded to 50, 150, 250, 350, 450, 500, 1500, 2500, 3500, and 4500 ng by weight of each of the four PAH standards contained in the secondary standard mixture.

Like-named read-outs stand apart in the source and are kept apart here.

On to `O=c1c(O)c(-c2ccc(O)cc2)oc2cc(O)cc(O)c12` [Kaempferol, kaempferol], for which the “Bound % (Oasis ® HLB, 30 mg, 1 ml sorbent)” value (from here on “Bound %”) in data set [1] was determined as 100%.
On to `O=c1c(O)c(-c2ccc(O)c(O)c2)oc2cc(O)cc(O)c12` [Quercetin, quercetin], for which the percent degradation in data set [2] (0 h, 10 ppm) is 0%; in data set [2] (0 h, 15 ppm), 0%; in data set [2] (0 h, 20 ppm) it was 0%; in data set [2] (0 h, 25 ppm), 0%; in data set [2] (0 h, 30 ppm) it was 0%; in data set [2] (4 h, 10 ppm), −0.4024%. The percent degradation in data set [2] (4 h, 15 ppm) is on record as 0.1356%; in data set [2] (4 h, 20 ppm), −0.4094%; in data set [2] (4 h, 25 ppm) it was 0.4552%; in data set [2] (4 h, 30 ppm), −0.3121%; in data set [2] (1 day, 10 ppm) it was 0.4024%; in data set [2] (1 day, 15 ppm), −0.4070%. The percent degradation in data set [2] (1 day, 20 ppm) is on record as 0.1023%; in data set [2] (1 day, 25 ppm), 1.442%; in data set [2] (1 day, 30 ppm), −0.2496%; in data set [2] (3 days, 10 ppm) it was 3.822%; in data set [2] (3 days, 15 ppm), 2.442%; in data set [2] (3 days, 20 ppm), 1.842%. Moreover, the percent degradation in data set [2] (3 days, 25 ppm) was 2.656%; in data set [2] (3 days, 30 ppm) it was 0.9363%; in data set [2] (7 days, 10 ppm), 6.237%; in data set [2] (7 days, 15 ppm), 3.799%; in data set [2] (7 days, 20 ppm), 4.811%; in data set [2] (7 days, 25 ppm), 4.780%. The percent degradation stood at 3.246% in data set [2] (7 days, 30 ppm); 5.432% in data set [2] (10 days, 10 ppm); 3.664% in data set [2] (10 days, 15 ppm); 3.480% in data set [2] (10 days, 20 ppm); 3.414% in data set [2] (10 days, 25 ppm); 2.871% in data set [2] (10 days, 30 ppm). Also, the percent degradation in data set [2] (28 days, 10 ppm) was 12.47%; in data set [2] (28 days, 15 ppm), 9.633%; in data set [2] (28 days, 20 ppm), 7.881%; in data set [2] (28 days, 25 ppm), 6.525%; in data set [2] (28 days, 30 ppm), 5.056%. Also, the “Bound %” value in data set [1] is 100%.
Turning to `c1ccc2c(c1)ccc1c3ccccc3ccc21` [Chrysene (Ch), Chrysene], in data set [3], the “Average % Bound” value is reported as 95-99% and the “Average % Recovered” value was 100-102%.
On the same counts, the results for `c1ccc2c(c1)-c1cccc3c1c-2cc1ccccc13` [Benzo(b)fluoranthene (B(b)F), Benzo(b)fluoranthene] are 95-99% and 90-97%.
The matching figures for `c1ccc2c(c1)cc1ccc3cccc4ccc2c1c34` [Benzo(a)pyrene (B(a)P), Benzo(a)pyrene]: 95-99% and 96-100%.
The matching figures for `c1ccc2cc3c(ccc4ccccc43)cc2c1` [Benz(a)anthracene (B(a)A), Benz(a)anthracene]: 95-99% and 100-102%.
Consider `O=c1c(O)c(-c2cc(O)c(O)c(O)c2)oc2cc(O)cc(O)c12` [Myricetin, myricetin], for which the percent degradation in data set [2] (0 h, 10 ppm) is recorded as 0%; in data set [2] (0 h, 15 ppm), 0%; in data set [2] (0 h, 20 ppm), 0%; in data set [2] (0 h, 25 ppm), 0%; in data set [2] (0 h, 30 ppm) it was 0%; in data set [2] (4 h, 10 ppm) it was −0.4796%. Besides, the percent degradation in data set [2] (4 h, 15 ppm) is listed as −0.6270%; in data set [2] (4 h, 20 ppm) it was 1.520%; in data set [2] (4 h, 25 ppm), 0.1736%; in data set [2] (4 h, 30 ppm), 0.4265%; in data set [2] (1 day, 10 ppm), −0.9592%; in data set [2] (1 day, 15 ppm), 0.3134%. Further, the percent degradation worked out at 2.690% in data set [2] (1 day, 20 ppm); 3.211% in data set [2] (1 day, 25 ppm); 0.9239% in data set [2] (1 day, 30 ppm); 4.556% in data set [2] (3 days, 10 ppm); 5.015% in data set [2] (3 days, 15 ppm); 6.901% in data set [2] (3 days, 20 ppm). The percent degradation in data set [2] (3 days, 25 ppm) is 5.990%; in data set [2] (3 days, 30 ppm), 3.767%; in data set [2] (7 days, 10 ppm) it was 11.27%; in data set [2] (7 days, 15 ppm) it was 9.404%; in data set [2] (7 days, 20 ppm), 12.74%; in data set [2] (7 days, 25 ppm) it was 10.67%. The percent degradation in data set [2] (7 days, 30 ppm) is recorded as 8.319%; in data set [2] (10 days, 10 ppm), 12.47%; in data set [2] (10 days, 15 ppm), 10.66%; in data set [2] (10 days, 20 ppm) it was 12.63%; in data set [2] (10 days, 25 ppm), 9.982%; in data set [2] (10 days, 30 ppm), 7.747%. Moreover, the percent degradation in data set [2] (28 days, 10 ppm) came out at 30.46%; in data set [2] (28 days, 15 ppm), 31.97%; in data set [2] (28 days, 20 ppm), 22.92%; in data set [2] (28 days, 25 ppm), 19.36%; in data set [2] (28 days, 30 ppm) it was 17.13%. Further, in data set [1], the “Bound %” value is 100%.
